From the kinase profiling compilation of Christmann-Franck et al. (2016)

Tests used:
Assay in all cases: radiometric filter-binding kinase assay, Kinase HotSpot
Details in all cases: compound 0.5 µM; ATP 10 µM
ABL2 (human) = ABL2 (human) (UniProt P42684)
AURKC (human) = AURKC (human) (UniProt Q9UQB9)
BMX (human) = BMX (human) (UniProt P51813)
BRSK1 (human) = BRSK1 (human) (UniProt Q8TDC3)
CAMKK2 (human) = CAMKK2 (human) (UniProt Q96RR4)
CDK5 CDK5R1 p25 (human) = CDK5 CDK5R1 p25 (human) (UniProt Q00535+Q15078)
CDK9 CCNK (human) = CDK9 CCNK (human) (UniProt O75909+P50750)
CLK3 (human) = CLK3 (human) (UniProt P49761)
CSK (human) = CSK (human) (UniProt P41240)
CSNK1D (human) = CSNK1D (human) (UniProt P48730)
DMPK (human) = DMPK (human) (UniProt Q09013)
DYRK1A (human) = DYRK1A (human) (UniProt Q13627)
EPHA4 (human) = EPHA4 (human) (UniProt P54764)
EPHA8 (human) = EPHA8 (human) (UniProt P29322)
EPHB3 (human) = EPHB3 (human) (UniProt P54753)
ERBB4 (human) = ERBB4 (human) (UniProt Q15303)
Chain of ERBB4 (human) (Q15303 whole entry, looked up): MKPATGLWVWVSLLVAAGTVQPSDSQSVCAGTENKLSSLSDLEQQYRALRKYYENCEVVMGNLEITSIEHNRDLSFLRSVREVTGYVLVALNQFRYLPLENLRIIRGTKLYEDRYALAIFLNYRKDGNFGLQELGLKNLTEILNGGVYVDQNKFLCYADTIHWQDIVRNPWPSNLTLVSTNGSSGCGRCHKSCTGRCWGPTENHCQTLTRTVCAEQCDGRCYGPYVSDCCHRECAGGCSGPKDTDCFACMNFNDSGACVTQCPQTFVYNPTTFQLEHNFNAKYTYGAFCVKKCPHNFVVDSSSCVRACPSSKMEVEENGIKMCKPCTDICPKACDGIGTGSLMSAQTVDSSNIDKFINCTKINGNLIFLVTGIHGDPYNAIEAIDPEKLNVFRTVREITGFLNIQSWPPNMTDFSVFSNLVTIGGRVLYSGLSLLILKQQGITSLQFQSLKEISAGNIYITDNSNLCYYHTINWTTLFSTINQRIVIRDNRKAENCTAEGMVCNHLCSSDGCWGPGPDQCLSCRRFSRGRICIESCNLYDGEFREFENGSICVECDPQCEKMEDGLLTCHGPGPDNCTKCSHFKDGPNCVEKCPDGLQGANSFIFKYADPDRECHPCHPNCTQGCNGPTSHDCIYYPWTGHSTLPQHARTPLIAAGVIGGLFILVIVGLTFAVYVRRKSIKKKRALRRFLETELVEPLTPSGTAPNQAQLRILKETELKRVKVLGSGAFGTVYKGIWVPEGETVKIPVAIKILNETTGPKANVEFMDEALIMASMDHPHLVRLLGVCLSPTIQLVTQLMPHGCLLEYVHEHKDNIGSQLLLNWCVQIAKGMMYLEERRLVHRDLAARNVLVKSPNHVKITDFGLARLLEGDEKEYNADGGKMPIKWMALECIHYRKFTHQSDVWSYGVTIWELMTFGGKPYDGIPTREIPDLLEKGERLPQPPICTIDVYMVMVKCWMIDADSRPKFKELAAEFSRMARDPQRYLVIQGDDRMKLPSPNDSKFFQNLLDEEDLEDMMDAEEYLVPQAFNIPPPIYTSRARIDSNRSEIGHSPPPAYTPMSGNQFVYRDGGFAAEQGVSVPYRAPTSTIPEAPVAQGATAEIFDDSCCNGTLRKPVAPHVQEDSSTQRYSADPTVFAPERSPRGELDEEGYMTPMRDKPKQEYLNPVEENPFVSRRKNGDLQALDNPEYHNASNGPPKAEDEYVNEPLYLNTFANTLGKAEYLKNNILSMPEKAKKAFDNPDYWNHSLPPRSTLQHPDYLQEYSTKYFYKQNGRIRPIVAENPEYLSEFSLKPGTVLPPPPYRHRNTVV

FGFR4 (human) = FGFR4 (human) (UniProt P22455)
GSK3B (human) = GSK3B (human) (UniProt P49841)
HIPK1 (human) = HIPK1 (human) (UniProt Q86Z02)
IGF1R (human) = IGF1R (human) (UniProt P08069)
IKBKE (human) = IKBKE (human) (UniProt Q14164)
IRAK1 (human) = IRAK1 (human) (UniProt P51617)
MAP2K1 (human) = MAP2K1 (human) (UniProt Q02750)
MAP2K2 (human) = MAP2K2 (human) (UniProt P36507)
MAPK13 (human) = MAPK13 (human) (UniProt O15264)
MAPK14 (human) = MAPK14 (human) (UniProt Q16539)
MAPKAPK2 (human) = MAPKAPK2 (human) (UniProt P49137)
MARK3 (human) = MARK3 (human) (UniProt P27448)
Chain of MARK3 (human) (P27448 whole entry, looked up): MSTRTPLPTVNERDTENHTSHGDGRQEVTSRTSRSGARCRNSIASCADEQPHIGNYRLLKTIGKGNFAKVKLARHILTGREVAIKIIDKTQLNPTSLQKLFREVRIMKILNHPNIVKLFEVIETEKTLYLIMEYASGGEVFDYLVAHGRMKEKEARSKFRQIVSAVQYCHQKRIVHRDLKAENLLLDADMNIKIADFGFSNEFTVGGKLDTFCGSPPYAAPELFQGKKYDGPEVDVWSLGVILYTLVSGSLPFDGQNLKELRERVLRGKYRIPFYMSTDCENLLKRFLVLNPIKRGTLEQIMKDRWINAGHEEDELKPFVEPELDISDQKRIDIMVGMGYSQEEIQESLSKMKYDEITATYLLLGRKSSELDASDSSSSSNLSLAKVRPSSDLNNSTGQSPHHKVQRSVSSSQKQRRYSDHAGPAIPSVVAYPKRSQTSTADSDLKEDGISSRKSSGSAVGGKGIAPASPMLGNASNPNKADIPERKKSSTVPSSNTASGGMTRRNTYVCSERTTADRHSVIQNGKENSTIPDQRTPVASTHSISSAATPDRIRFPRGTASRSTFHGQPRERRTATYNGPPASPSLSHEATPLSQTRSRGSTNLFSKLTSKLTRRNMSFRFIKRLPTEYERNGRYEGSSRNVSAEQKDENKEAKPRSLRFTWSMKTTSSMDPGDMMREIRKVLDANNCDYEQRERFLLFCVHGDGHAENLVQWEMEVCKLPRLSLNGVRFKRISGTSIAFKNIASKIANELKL

MARK4 (human) = MARK4 (human) (UniProt Q96L34)
MATK (human) = MATK (human) (UniProt P42679)
MERTK (human) = MERTK (human) (UniProt Q12866)
Chain of MERTK (human) (Q12866 whole entry, looked up): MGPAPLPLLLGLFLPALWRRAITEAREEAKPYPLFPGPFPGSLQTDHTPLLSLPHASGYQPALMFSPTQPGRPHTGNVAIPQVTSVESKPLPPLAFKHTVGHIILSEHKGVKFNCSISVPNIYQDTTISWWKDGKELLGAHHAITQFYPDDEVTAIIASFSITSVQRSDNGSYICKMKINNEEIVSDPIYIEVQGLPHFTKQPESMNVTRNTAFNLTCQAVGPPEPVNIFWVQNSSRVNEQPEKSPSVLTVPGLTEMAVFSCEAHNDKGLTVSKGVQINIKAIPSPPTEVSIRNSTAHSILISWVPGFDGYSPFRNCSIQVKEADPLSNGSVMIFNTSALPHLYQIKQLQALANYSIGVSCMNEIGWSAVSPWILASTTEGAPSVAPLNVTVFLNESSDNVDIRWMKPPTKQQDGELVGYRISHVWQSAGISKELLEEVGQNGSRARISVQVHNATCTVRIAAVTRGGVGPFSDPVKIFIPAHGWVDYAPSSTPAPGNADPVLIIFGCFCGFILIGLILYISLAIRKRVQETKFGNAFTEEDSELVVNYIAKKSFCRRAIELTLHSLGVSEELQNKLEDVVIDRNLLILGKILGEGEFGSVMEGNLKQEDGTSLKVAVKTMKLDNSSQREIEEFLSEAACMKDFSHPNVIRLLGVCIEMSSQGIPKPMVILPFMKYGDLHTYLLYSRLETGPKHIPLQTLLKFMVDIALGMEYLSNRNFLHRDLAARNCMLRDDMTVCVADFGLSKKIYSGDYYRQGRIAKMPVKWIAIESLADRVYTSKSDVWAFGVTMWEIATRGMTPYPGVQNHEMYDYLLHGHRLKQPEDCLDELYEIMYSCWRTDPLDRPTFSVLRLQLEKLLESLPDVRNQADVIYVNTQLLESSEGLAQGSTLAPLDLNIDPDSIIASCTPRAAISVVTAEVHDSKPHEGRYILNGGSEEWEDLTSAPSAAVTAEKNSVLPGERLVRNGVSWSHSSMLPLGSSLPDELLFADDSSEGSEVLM

MYLK2 (human) = MYLK2 (human) (UniProt Q9H1R3)
NEK2 (human) = NEK2 (human) (UniProt P51955)
PASK (human) = PASK (human) (UniProt Q96RG2)
Chain of PASK (human) (Q96RG2 whole entry, looked up): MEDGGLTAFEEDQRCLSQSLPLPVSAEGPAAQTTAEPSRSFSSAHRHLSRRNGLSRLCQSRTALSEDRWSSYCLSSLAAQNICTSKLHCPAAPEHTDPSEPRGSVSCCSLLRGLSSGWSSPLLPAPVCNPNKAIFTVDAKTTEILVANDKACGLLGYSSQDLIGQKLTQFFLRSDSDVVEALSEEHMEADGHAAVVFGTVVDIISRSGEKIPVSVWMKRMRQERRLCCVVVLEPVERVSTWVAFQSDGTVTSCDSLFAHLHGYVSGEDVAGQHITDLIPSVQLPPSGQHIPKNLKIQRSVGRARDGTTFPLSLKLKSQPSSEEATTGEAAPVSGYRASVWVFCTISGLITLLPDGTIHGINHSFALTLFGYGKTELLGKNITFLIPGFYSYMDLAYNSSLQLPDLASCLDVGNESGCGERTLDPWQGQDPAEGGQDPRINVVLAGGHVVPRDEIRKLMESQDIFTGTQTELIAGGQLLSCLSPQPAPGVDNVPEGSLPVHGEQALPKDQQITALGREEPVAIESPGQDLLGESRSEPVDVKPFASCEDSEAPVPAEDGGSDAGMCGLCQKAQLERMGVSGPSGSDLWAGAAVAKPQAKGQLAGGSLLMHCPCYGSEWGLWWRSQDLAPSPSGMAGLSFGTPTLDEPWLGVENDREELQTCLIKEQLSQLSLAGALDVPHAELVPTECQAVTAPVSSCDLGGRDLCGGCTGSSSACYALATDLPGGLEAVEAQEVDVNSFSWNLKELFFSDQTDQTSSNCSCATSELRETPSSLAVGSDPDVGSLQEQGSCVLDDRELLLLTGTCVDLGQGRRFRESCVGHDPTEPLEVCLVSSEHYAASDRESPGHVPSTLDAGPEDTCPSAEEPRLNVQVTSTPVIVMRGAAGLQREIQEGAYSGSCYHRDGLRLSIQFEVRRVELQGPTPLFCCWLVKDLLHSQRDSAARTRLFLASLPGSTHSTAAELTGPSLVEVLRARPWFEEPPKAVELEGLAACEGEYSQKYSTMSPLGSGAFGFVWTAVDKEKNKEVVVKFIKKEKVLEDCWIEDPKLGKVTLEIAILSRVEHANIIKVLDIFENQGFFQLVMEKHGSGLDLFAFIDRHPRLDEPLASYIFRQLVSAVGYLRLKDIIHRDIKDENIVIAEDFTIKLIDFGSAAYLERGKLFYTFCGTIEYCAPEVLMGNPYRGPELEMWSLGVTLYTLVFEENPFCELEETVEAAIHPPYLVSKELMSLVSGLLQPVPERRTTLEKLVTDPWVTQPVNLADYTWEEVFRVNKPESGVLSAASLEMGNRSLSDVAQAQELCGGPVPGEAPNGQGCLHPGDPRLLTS

PDPK1 (human) = PDPK1 (human) (UniProt O15530)
PKN1 (human) = PKN1 (human) (UniProt Q16512)
PRKCG (human) = PRKCG (human) (UniProt P05129)
PRKCI (human) = PRKCI (human) (UniProt P41743)
SGK3 (human) = SGK3 (human) (UniProt Q96BR1)
STK17A (human) = STK17A (human) (UniProt Q9UEE5)
WNK2 (human) = WNK2 (human) (UniProt Q9Y3S1)
WNK3 (human) = WNK3 (human) (UniProt Q9BYP7)

`Cc1cc2ncc(-c3ccccc3)nc2cc1C` was tested, and the residual activity (ABL2 (human)) was 103%, the residual activity (AURKC (human)) was 92.1% and the residual activity (BMX (human)) was 90%. It also gave a residual activity (BRSK1 (human)) of 95.1%, a residual activity (CAMKK2 (human)) of 91.8% and a residual activity (CDK5 CDK5R1 p25 (human)) of 96.6%. It also gave a residual activity (CDK9 CCNK (human)) of 101%, a residual activity (CLK3 (human)) of 92.8% and a residual activity (CSK (human)) of 96.5%. It also gave a residual activity (CSNK1D (human)) of 90.7%, a residual activity (DMPK (human)) of 102% and a residual activity (DYRK1A (human)) of 89.9%. For the same molecule, the residual activity (EPHA4 (human)) was 95.4%, the residual activity (EPHA8 (human)) was 94.5% and the residual activity (EPHB3 (human)) was 98.4%. It also gave a residual activity (ERBB4 (human)) of 96.4%, a residual activity (FGFR4 (human)) of 77.2% and a residual activity (GSK3B (human)) of 79.5%. The residual activity (HIPK1 (human)) was 105%, the residual activity (IGF1R (human)) was 86.8% and the residual activity (IKBKE (human)) was 101%. It also gave a residual activity (IRAK1 (human)) of 114%, a residual activity (MAP2K1 (human)) of 98% and a residual activity (MAP2K2 (human)) of 97.6%. For the same molecule, the residual activity (MAPK13 (human)) was 107%, the residual activity (MAPK14 (human)) was 103% and the residual activity (MAPKAPK2 (human)) was 95.9%. The residual activity (MARK3 (human)) was 101%, the residual activity (MARK4 (human)) was 105% and the residual activity (MATK (human)) was 95.4%. It also gave a residual activity (MERTK (human)) of 81.4%, a residual activity (MYLK2 (human)) of 99.7% and a residual activity (NEK2 (human)) of 75.7%. It also gave a residual activity (PASK (human)) of 82.1%, a residual activity (PDPK1 (human)) of 103% and a residual activity (PKN1 (human)) of 92.5%. The residual activity (PRKCG (human)) was 96.9%, the residual activity (PRKCI (human)) was 98% and the residual activity (SGK3 (human)) was 101%. It also gave a residual activity (STK17A (human)) of 80%, a residual activity (WNK2 (human)) of 98.8% and a residual activity (WNK3 (human)) of 103%.

For `Clc1ccc(Nc2nnc(Cc3ccncc3)c3ccccc23)cc1`, the residual activity (ABL2 (human)) was 101%, the residual activity (AURKC (human)) was 87% and the residual activity (BMX (human)) was 106%. For the same molecule, the residual activity (BRSK1 (human)) was 93.1%, the residual activity (CAMKK2 (human)) was 100% and the residual activity (CDK5 CDK5R1 p25 (human)) was 91.3%. The residual activity (CDK9 CCNK (human)) was 104%, the residual activity (CLK3 (human)) was 105% and the residual activity (CSK (human)) was 87.6%. For the same molecule, the residual activity (CSNK1D (human)) was 92.2%, the residual activity (DMPK (human)) was 102% and the residual activity (DYRK1A (human)) was 102%. For the same molecule, the residual activity (EPHA4 (human)) was 102%, the residual activity (EPHA8 (human)) was 100% and the residual activity (EPHB3 (human)) was 65.1%. It also gave a residual activity (ERBB4 (human)) of 104%, a residual activity (FGFR4 (human)) of 95.8% and a residual activity (GSK3B (human)) of 104%. For the same molecule, the residual activity (HIPK1 (human)) was 99.2%, the residual activity (IGF1R (human)) was 108% and the residual activity (IKBKE (human)) was 95.7%. For the same molecule, the residual activity (IRAK1 (human)) was 94.1%, the residual activity (MAP2K1 (human)) was 100% and the residual activity (MAP2K2 (human)) was 100%. It also gave a residual activity (MAPK13 (human)) of 88.9%, a residual activity (MAPK14 (human)) of 98.2% and a residual activity (MAPKAPK2 (human)) of 98.8%. It also gave a residual activity (MARK3 (human)) of 102%, a residual activity (MARK4 (human)) of 104% and a residual activity (MATK (human)) of 78.1%. For the same molecule, the residual activity (MERTK (human)) was 116%, the residual activity (MYLK2 (human)) was 103% and the residual activity (NEK2 (human)) was 101%. For the same molecule, the residual activity (PASK (human)) was 101%, the residual activity (PDPK1 (human)) was 88.3% and the residual activity (PKN1 (human)) was 95.9%. For the same molecule, the residual activity (PRKCG (human)) was 93.3%, the residual activity (PRKCI (human)) was 94.2% and the residual activity (SGK3 (human)) was 99.2%. It also gave a residual activity (STK17A (human)) of 99.4%, a residual activity (WNK2 (human)) of 96.3% and a residual activity (WNK3 (human)) of 99.1%.

For `COc1ccc(-c2cnc3c(-c4ccsc4)cnn3c2)cc1`, the residual activity (ABL2 (human)) was 63.4%, the residual activity (AURKC (human)) was 75.3% and the residual activity (BMX (human)) was 90.6%. The residual activity (BRSK1 (human)) was 81.5%, the residual activity (CAMKK2 (human)) was 72.9% and the residual activity (CDK5 CDK5R1 p25 (human)) was 73%. It also gave a residual activity (CDK9 CCNK (human)) of 76.9%, a residual activity (CLK3 (human)) of 100% and a residual activity (CSK (human)) of 95.3%. For the same molecule, the residual activity (CSNK1D (human)) was 83.6%, the residual activity (DMPK (human)) was 100% and the residual activity (DYRK1A (human)) was 69.7%. For the same molecule, the residual activity (EPHA4 (human)) was 87.6%, the residual activity (EPHA8 (human)) was 90.3% and the residual activity (EPHB3 (human)) was 99.4%. For the same molecule, the residual activity (ERBB4 (human)) was 94.2%, the residual activity (FGFR4 (human)) was 89.2% and the residual activity (GSK3B (human)) was 99.4%. It also gave a residual activity (HIPK1 (human)) of 99.8%, a residual activity (IGF1R (human)) of 91.3% and a residual activity (IKBKE (human)) of 85.5%. The residual activity (IRAK1 (human)) was 94%, the residual activity (MAP2K1 (human)) was 98.2% and the residual activity (MAP2K2 (human)) was 95.5%. The residual activity (MAPK13 (human)) was 93.5%, the residual activity (MAPK14 (human)) was 120% and the residual activity (MAPKAPK2 (human)) was 95.8%. It also gave a residual activity (MARK3 (human)) of 88.8%, a residual activity (MARK4 (human)) of 92.7% and a residual activity (MATK (human)) of 99.4%. The residual activity (MERTK (human)) was 81.2%, the residual activity (MYLK2 (human)) was 75.6% and the residual activity (NEK2 (human)) was 90.2%. For the same molecule, the residual activity (PASK (human)) was 79.5%, the residual activity (PDPK1 (human)) was 96% and the residual activity (PKN1 (human)) was 93.1%. The residual activity (PRKCG (human)) was 112%, the residual activity (PRKCI (human)) was 96.2% and the residual activity (SGK3 (human)) was 99.6%. The residual activity (STK17A (human)) was 91.6%, the residual activity (WNK2 (human)) was 103% and the residual activity (WNK3 (human)) was 92.7%.
